Data as given in patent US12581252B2, “Substituted pyrrolo[3,4-b]pyridines as PI3K-α inhibitors” (Relay Therapeutics, Inc., priority 2020, dated 2026).
pIC50: −log10 of the molar value.

Biological target: H1047R PIK3CA enzyme (Homo sapiens, UniProt P42336, H1047R)
Test: ADP-Glo Biochemical PIK3CA Kinase Assay
Protocol: Compounds to be assayed were plated in 16 doses of 1:2 serial dilutions (20 nL volume each well) on a 1536-well plate, and the plate warmed to room temperature. […] To the well was added 1 μL of 200 μM ATP and 20 μM of diC8-PIP2 in Substrate Assay Buffer (50 mM HEPES pH7.4, 50 mM NaCl, 5 mM DTT and 0.03% CHAPS) to start the reaction, and the plate was shaken for 10 seconds, then spun briefly at 1500 rpm, and then incubated for 60 minutes at room temperature. The reaction was stopped by adding 2 μL of ADP-Glo reagent (Promega), and spinning briefly at 1500 rpm, and then incubating for 40 minutes. ADP-Glo Detection reagent (Promega) was added and the plate spun briefly at 1500 rpm, then incubated for 30 minutes.

H1047R PIK3CA enzyme, sequence (P42336 whole entry H1047R): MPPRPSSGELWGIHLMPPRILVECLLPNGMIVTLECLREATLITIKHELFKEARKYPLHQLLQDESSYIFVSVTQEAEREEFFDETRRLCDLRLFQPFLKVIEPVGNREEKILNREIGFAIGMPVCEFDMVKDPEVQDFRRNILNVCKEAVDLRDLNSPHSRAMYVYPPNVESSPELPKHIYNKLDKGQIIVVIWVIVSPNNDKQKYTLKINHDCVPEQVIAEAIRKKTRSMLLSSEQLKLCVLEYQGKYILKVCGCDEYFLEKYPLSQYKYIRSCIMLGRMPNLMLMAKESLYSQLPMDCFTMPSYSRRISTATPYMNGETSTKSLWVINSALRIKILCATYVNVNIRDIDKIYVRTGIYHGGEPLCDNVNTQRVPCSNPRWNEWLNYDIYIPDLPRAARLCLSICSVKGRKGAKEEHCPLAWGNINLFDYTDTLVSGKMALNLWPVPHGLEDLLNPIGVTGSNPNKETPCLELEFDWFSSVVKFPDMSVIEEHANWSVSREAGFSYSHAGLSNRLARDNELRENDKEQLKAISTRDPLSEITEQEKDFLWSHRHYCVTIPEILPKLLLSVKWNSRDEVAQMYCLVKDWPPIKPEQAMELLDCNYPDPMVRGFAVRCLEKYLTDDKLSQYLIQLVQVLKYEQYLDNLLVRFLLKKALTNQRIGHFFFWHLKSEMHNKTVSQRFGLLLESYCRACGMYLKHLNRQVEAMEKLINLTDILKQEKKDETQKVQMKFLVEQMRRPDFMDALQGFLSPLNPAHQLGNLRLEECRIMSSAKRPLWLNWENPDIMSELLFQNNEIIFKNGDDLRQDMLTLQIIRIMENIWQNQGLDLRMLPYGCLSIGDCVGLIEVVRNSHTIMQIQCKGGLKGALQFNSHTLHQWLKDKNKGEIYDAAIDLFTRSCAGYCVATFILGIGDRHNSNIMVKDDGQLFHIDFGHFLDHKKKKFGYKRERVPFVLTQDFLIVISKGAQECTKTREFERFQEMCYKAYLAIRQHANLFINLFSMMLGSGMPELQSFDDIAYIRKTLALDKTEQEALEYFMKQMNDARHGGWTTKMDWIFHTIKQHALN
H1047R PIK3CA enzyme, sequence (P27986 whole entry partner): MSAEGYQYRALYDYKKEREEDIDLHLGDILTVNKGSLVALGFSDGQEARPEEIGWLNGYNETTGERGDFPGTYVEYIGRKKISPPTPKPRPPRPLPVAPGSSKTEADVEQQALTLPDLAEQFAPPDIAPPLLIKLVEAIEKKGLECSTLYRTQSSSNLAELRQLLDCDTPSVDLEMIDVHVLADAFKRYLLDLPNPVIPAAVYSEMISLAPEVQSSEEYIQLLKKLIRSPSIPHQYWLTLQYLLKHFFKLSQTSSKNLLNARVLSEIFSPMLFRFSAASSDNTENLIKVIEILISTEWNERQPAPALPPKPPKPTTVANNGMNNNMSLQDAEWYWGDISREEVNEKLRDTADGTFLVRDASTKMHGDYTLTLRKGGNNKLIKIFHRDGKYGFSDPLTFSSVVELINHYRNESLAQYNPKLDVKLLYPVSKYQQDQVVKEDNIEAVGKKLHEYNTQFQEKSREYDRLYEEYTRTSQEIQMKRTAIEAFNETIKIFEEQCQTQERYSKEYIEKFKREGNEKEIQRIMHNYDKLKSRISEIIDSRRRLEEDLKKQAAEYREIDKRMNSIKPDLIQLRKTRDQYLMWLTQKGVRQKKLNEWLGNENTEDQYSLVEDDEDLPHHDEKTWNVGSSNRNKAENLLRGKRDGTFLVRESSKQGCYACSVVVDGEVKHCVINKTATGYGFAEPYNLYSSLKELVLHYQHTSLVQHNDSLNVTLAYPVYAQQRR

O=C1N[C@@H](c2cc(F)ccc2Cl)c2c(NC(=O)[C@@H]3CCCCN3)cc(-c3ccc4ncnn4c3)cc21 (racemic) [Compound I-1780]
pIC50: 4.00 to 5.00

O=C(Nc1cccc2c1C(C1=C(F)CCCC1)NC2=O)c1cc(F)cc(C(F)(F)F)c1 (racemic) [Compound I-1790]
pIC50: 6.00 to 6.30

CC1(C2NC(=O)c3cccc(NC(=O)c4cc(F)cc(C(F)(F)F)c4)c32)CC1 (racemic) [Compound I-1791]
pIC50: 4.00 to 5.00

CN1CC(C2NC(=O)c3cccc(NC(=O)c4cc(F)cc(C(F)(F)F)c4)c32)C1 (racemic) [Compound I-1832]
pIC50: 4.00 to 5.00

O=C(Nc1cccc2c1[C@H](C1CCC(F)(F)CC1)NC2=O)c1cc(F)cc(C(F)(F)F)c1 (racemic) [Compound I-1836]
pIC50: 4.00 to 5.00

CC(=O)N[C@@H]1CCC[C@H](C(=O)Nc2cc(-c3ccc4ncnn4c3)cc3c2C(c2cc(F)ccc2Cl)NC3=O)C1 (mixture of isomers) [Compound I-1842]
pIC50: 4.00 to 5.00

CC(=O)N[C@H]1CCC[C@H](C(=O)Nc2cc(-c3ccc4ncnn4c3)cc3c2C(c2cc(F)ccc2Cl)NC3=O)C1 (mixture of isomers) [Compound I-1843]
pIC50: 4.00 to 5.00

N[C@@H]1CCC[C@H](C(=O)Nc2cc(-c3ccc4ncnn4c3)cc3c2C(c2cc(F)ccc2Cl)NC3=O)C1 (mixture of isomers) [Compound I-1844]
pIC50: 4.00 to 5.00

N[C@H]1CCC[C@H](C(=O)Nc2cc(-c3ccc4ncnn4c3)cc3c2C(c2cc(F)ccc2Cl)NC3=O)C1 (mixture of isomers) [Compound I-1845]
pIC50: 4.00 to 5.00

O=C1N[C@@H](c2cc(F)ccc2Cl)c2c(NC(=O)[C@H]3CCCNC3)cc(-c3ccc4ncnn4c3)cc21 (racemic) [Compound I-1847]
pIC50: 4.00 to 5.00

O=C1N[C@H](c2cc(F)ccc2Cl)c2c(NC(=O)[C@H]3CCCNC3)cc(-c3ccc4ncnn4c3)cc21 (racemic) [Compound I-1848]
pIC50: 4.00 to 5.00

CC(=O)N[C@H]1CC[C@@H](C(=O)Nc2cc(-c3ccc4ncnn4c3)cc3c2C(c2cc(F)ccc2Cl)NC3=O)CC1 (mixture of isomers) [Compound I-1849]
pIC50: 4.00 to 5.00

CC(=O)N[C@H]1CC[C@H](C(=O)Nc2cc(-c3ccc4ncnn4c3)cc3c2C(c2cc(F)ccc2Cl)NC3=O)CC1 (mixture of isomers) [Compound I-1850]
pIC50: 4.00 to 5.00

O=C1N[C@@H](c2cc(F)ccc2Cl)c2c(NC(=O)[C@H]3C[C@H]3C(F)(F)F)cc(Br)cc21 (racemic) [Compound I-1853]
pIC50: 4.00 to 5.00

O=C1N[C@H](c2cc(F)ccc2Cl)c2c(NC(=O)[C@H]3C[C@H]3C(F)(F)F)cc(Br)cc21 (racemic) [Compound I-1854]
pIC50: 4.00 to 5.00

O=C1N[C@@H](c2cc(F)ccc2Cl)c2c(N[C@H]3COCc4ccccc43)cc(Br)cc21 (racemic) [Compound I-1893]
pIC50: 4.00 to 5.00

O=C1N[C@@H](c2cc(F)ccc2Cl)c2c(N[C@@H]3COCc4ccccc43)cc(Br)cc21 (racemic) [Compound I-1894]
pIC50: 4.00 to 5.00

O=C(Nc1cccc2c1[C@H]([C@@H]1COCCN1)NC2=O)c1cc(F)cc(C(F)(F)F)c1 (racemic) [Compound I-1901]
pIC50: 4.00 to 5.00

O=C(Nc1cccc2c1C(C1CCCCC13CC3)NC2=O)c1cc(F)cc(C(F)(F)F)c1 (racemic) [Compound I-1912]
pIC50: 5.00 to 6.00

O=C1NC(c2cc(F)ccc2Cl)c2c(NC(=O)[C@H]3C[C@@H](O)c4ccccc43)cc(Br)cc21 (mixture of isomers) [Compound I-1942]
pIC50: 4.00 to 5.00

O=C1NC(c2cc(F)ccc2Cl)c2c(NC(=O)[C@H]3C[C@H](O)c4ccccc43)cc(Br)cc21 (mixture of isomers) [Compound I-1943]
pIC50: 4.00 to 5.00

CN1CCCC[C@H]1C(=O)Nc1cc(-c2ccc3ncnn3c2)cc2c1[C@@H](c1cc(F)ccc1Cl)NC2=O (racemic) [Compound I-1947]
pIC50: 4.00 to 5.00

CN1CCCC[C@H]1C(=O)Nc1cc(-c2ccc3ncnn3c2)cc2c1[C@H](c1cc(F)ccc1Cl)NC2=O (racemic) [Compound I-1948]
pIC50: 4.00 to 5.00

O=C(Nc1cc(Br)cc2c1[C@H](c1cc(F)ccc1Cl)NC2=O)N[C@]1(CC(F)(F)F)CCCOC1 (racemic) [Compound I-1949]
pIC50: 4.00 to 5.00

O=C(Nc1cccc2c1C(C1CCCN1)NC2=O)c1cc(F)cc(C(F)(F)F)c1 (racemic) [Compound I-1956]
pIC50: 4.00 to 5.00

O=C(Nc1cccc2c1C(C1CCCOC1)NC2=O)c1cc(F)cc(C(F)(F)F)c1 (racemic) [Compound I-1958]
pIC50: 4.00 to 5.00

O=C(Nc1cc(Br)cc2c1[C@@H](c1cc(F)ccc1Cl)NC2=O)N[C@]1(CC(F)(F)F)CCCOC1 (racemic) [Compound I-1961]
pIC50: 4.00 to 5.00

O=C1N[C@@H](c2cc(F)ccc2Cl)c2c(N[C@H]3CCOc4ccccc43)cc(Br)cc21 (racemic) [Compound I-2013]
pIC50: 4.00 to 5.00

O=C1N[C@@H](c2cc(F)ccc2Cl)c2c(N[C@@H]3CCOc4ccccc43)cc(Br)cc21 (racemic) [Compound I-2014]
pIC50: 4.00 to 5.00

O=C1N[C@H](c2cc(F)ccc2Cl)c2c(N[C@H]3CCCNC3)cc(-c3ccc4ncnn4c3)cc21 (racemic) [Compound I-2023]
pIC50: 4.00 to 5.00

O=C(Nc1cccc2c1[C@H]([C@@H]1CCCCC1=O)NC2=O)c1cc(F)cc(C(F)(F)F)c1 (racemic) [Compound I-2036]
pIC50: 4.00 to 5.00

O=C(Nc1cccc2c1[C@@H](C13C[C@H]4C[C@@H](C1)C[C@@H](C3)C4)NC2=O)c1cc(F)cc(C(F)(F)F)c1 (racemic) [Compound I-2074]
pIC50: 4.00 to 5.00

O=C(Nc1cccc2c1[C@H](C13C[C@H]4C[C@@H](C1)C[C@@H](C3)C4)NC2=O)c1cc(F)cc(C(F)(F)F)c1 (racemic) [Compound I-2075]
pIC50: 5.00 to 6.00

O=C1N[C@@H](c2cc(F)ccc2Cl)c2c(NC(=O)N3C[C@H](O)C[C@@H]3CC(F)(F)F)cccc21 (racemic) [Compound I-2162]
pIC50: 5.00 to 6.00

O=C1N[C@H](c2cc(F)ccc2Cl)c2c(NC(=O)N3C[C@H](O)C[C@@H]3CC(F)(F)F)cccc21 (racemic) [Compound I-2163]
pIC50: 4.00 to 5.00

O=C1N[C@@H](c2cc(F)ccc2Cl)c2c(NC(=O)N3C[C@@H](O)C[C@@H]3CC(F)(F)F)cccc21 (racemic) [Compound I-2164]
pIC50: 5.00 to 6.00

O=C1N[C@H](c2cc(F)ccc2Cl)c2c(NC(=O)N3C[C@@H](O)C[C@@H]3CC(F)(F)F)cccc21 (racemic) [Compound I-2165]
pIC50: 4.00 to 5.00

O=C1N[C@H](c2cc(F)ccc2Cl)c2c(Nc3cn[nH]c3)cc(Br)cc21 (racemic) [Compound I-2183]
pIC50: 4.00 to 5.00

O=C(Nc1cccc2c1[C@H]([C@H]1CCCCCN1)NC2=O)c1cc(F)cc(C(F)(F)F)c1 (racemic) [Compound I-2318]
pIC50: 4.00 to 5.00

C[C@H]([C@@H]1C[C@@H](O)CN1C(=O)Nc1cccc2c1[C@H](c1cc(F)ccc1Cl)NC2=O)C(F)(F)F (racemic) [Compound I-2341]
pIC50: 6.30 to 7.00

N[C@]1(C(F)(F)F)CN(C(=O)Nc2cccc3c2[C@@H](c2cc(F)ccc2Cl)NC3=O)c2ccc(F)cc21 (racemic) [Compound I-2471]
pIC50: 5.00 to 6.00

Cc1ccccc1[C@@H]1NC(=O)c2nccc(NC(=O)N3C[C@H](C)c4ccccc43)c21 (single isomer, unassigned) [Compound I-300]
pIC50: 6.30 to 7.00

Cc1ccccc1[C@H]1NC(=O)c2nccc(NC(=O)N3C[C@@H](C)c4ccccc43)c21 (single isomer, unassigned) [Compound I-301]
pIC50: 6.00 to 6.30

Cc1ccccc1[C@@H]1NC(=O)c2nccc(NC(=O)N3C[C@H](C)c4ccccc43)c21 (single isomer, unassigned) [Compound I-302]
pIC50: 6.00 to 6.30

Cc1ccccc1[C@@H]1NC(=O)c2nccc(NC(=O)N3C[C@@H](C)c4ccccc43)c21 (single isomer, unassigned) [Compound I-303]
pIC50: 4.00 to 5.00

C[C@]1(O)C[C@@H](Nc2cc(NC(=O)c3cc(F)cc(C(F)(F)F)c3)c3c(n2)C(=O)NC3c2cc(F)ccc2Cl)C1 (single isomer, unassigned) [Compound I-329]
pIC50: 6.30 to 7.00

CN1C[C@H](Nc2cc(NC(=O)c3cc(F)cc(C(F)(F)F)c3)c3c(c2)C(=O)NC3c2cc(F)ccc2Cl)CC1=O (single isomer, unassigned) [Compound I-343]
pIC50: ≥ 7.00

CN1C[C@@H](Nc2cc(NC(=O)c3cc(F)cc(C(F)(F)F)c3)c3c(c2)C(=O)NC3c2cc(F)ccc2Cl)CC1=O (single isomer, unassigned) [Compound I-375]
pIC50: ≥ 7.00

O=C(Nc1cc(N[C@H]2C[C@H](F)C2)cc2c1C(c1cc(F)ccc1Cl)NC2=O)c1cc(F)cc(C(F)(F)F)c1 (single isomer, unassigned) [Compound I-540]
pIC50: ≥ 7.00

O=C(Nc1cc(N[C@H]2C[C@@H](F)C2)cc2c1C(c1cc(F)ccc1Cl)NC2=O)c1cc(F)cc(C(F)(F)F)c1 (single isomer, unassigned) [Compound I-541]
pIC50: ≥ 7.00

O=C(Nc1cc(N[C@H]2C[C@H](O)C2)cc2c1C(c1cc(F)ccc1Cl)NC2=O)c1cc(F)cc(C(F)(F)F)c1 (single isomer, unassigned) [Compound I-609]
pIC50: ≥ 7.00

Cn1cc(-c2cc(NC(=O)c3cc(F)cc(C(F)(F)F)c3)c3c(c2)C(=O)N[C@@H]3c2cc(F)ccc2Cl)ccc1=O (single isomer, unassigned) [Compound I-701]
pIC50: 6.00 to 6.30

Cn1cc(-c2cc(NC(=O)c3cc(F)cc(C(F)(F)F)c3)c3c(c2)C(=O)N[C@H]3c2cc(F)ccc2Cl)ccc1=O (single isomer, unassigned) [Compound I-702]
pIC50: ≥ 7.00

N#Cc1cc(NC(=O)c2cc(F)cc(C(F)(F)F)c2)c2c(c1)C(=O)N[C@@H]2c1cc(F)ccc1Cl (single isomer, unassigned) [Compound I-770]
pIC50: ≥ 7.00

N#Cc1cc(NC(=O)c2cc(F)cc(C(F)(F)F)c2)c2c(c1)C(=O)N[C@H]2c1cc(F)ccc1Cl (single isomer, unassigned) [Compound I-771]
pIC50: ≥ 7.00
